How the values were obtained:
TGF-β receptors = experiment: Inhibition of specific binding of 125I-TGF-β1 to TGF-β receptors in mink lung epithelial cells; settings: peptide at 34 μM
Procedure: Specific binding of ^125I-labeled TGF-β1, TGF-β2, and TGF-β3 (^125I-TGF-β1, ^125I-TGF-β2, and ^125I-TGF-β3) to TGF-β receptors in mink lung epithelial cells. ^125I-TGF-β1, ^125I-TGF-β2, and ^125I-TGF-β3 were prepared by iodination of TGF-β1, TGF-β2, and TGF-β3 with Na^125I as described previously (Ref. 7). The specific radioactivities of ^125I-TGF-β1, ^125I-TGF-β2, and ^125I-TGF-β3 were 1-3×10^5 cpm/ng. Mink lung epithelial cells were grown on 24-well clustered dishes to near confluence in Dulbecco's modified Eagle medium (DMEM) containing 10% fetal calf serum. The epithelial cells were incubated with 0.1 nM ^125I-TGF-β1, ^125I-TGF-β2, or ^125I-TGF-β3 both with and without 100-fold excess of unlabeled TGF-β1, TGF-β2, or TGF-β3 in binding buffer (Ref. 7). After 2.5 hr at 0° C., the cells were washed two times with binding buffer, and the cell-associated radioactivity was determined. […] All experiments were carried out in triplicate cell cultures.

[1] = system: type V TGF-β receptor (TβR-V); experiment: 125I-TGF-β1-affinity labeling of cell-surface type V TGF-β receptor in mink lung epithelial cells; type: binding; settings: peptide at 2.3 μM
Procedure: (§1) ^125I-TGF-β1-affinity labeling of cell-surface TGF-β receptors in mink lung epithelial cells. Mink lung epithelial cells grown on 60-mm Petri dishes were incubated with 0.1 nM […] the presence of various concentrations of peptide β1^25 (41-65) or peptide β3^25 (41-65) in binding buffer. After 2.5 hr at 0° C., ^125I-TGF-β1-affinity labeling was carried out in the presence of DSS as described. The ^125I-TGF-β1-affinity-labeled TGF-β receptors were analyzed by 5% SDS-polyacrylamide gel electrophoresis under reducing conditions and autoradiography.

[2] = system: type I, type II, and type III TGF-β receptors; experiment: 125I-TGF-β1-affinity labeling of other cell-surface TGF-β receptor types in mink lung epithelial cells; type: binding; settings: peptide at 2.3 μM
Procedure: as §1

[3] = system: mink lung epithelial cells; experiment: Blocking of TGF-β1-induced growth inhibition ([methyl-3H]thymidine incorporation, DNA synthesis); type: cell-based
Procedure: (§2) [Methyl-^3H]thymidine Incorporation—Mink lung epithelial cells grown on 24-well clustered dishes were incubated with various concentrations of TGF-β1 in the presence and absence of peptide β1^25 (41-65) or with various concentrations of peptide β1^25 (41-65)-CA, and peptide β1^25 (41-65)-BSA in DMEM containing 0.1% fetal calf serum. After 16 hr at 37° C., the cells were pulsed with 1 μCi/ml of [methyl-^3H]thymidine for 4 hr. The cells were then washed twice with 1 ml of 10% trichloroacetic acid and once with 0.5 ml of ethanol:ether (2:1, v/v). The cells were then dissolved in 0.4 ml of 0.2 N NaOH and counted with a liquid scintillation counter.

[4] = system: mink lung epithelial cells; experiment: Mink lung epithelial cell growth measured by DNA synthesis without added TGF-β1 (agonist activity); type: cell-based
Procedure: as §2

burn wounds = experiment: Pig burn wound model; type: in vivo; settings: for re-epithelialization / healing rate versus vehicle: after post-burn day 10; for scarring versus vehicle-only control wounds: post-burn day 35 (and 41)
Procedure: (§3) Preparation of IntraSite® gel containing TGF-β peptantagonist (peptide TGF-beta antagonist). 1 ml of sterile 6 mM peptide β1^25 (41-65) in phosphate buffered saline or 1 ml of sterile phosphate buffered saline was vigorously mixed with 3 ml of IntraSite® gel using two 10 ml syringes connected with a three-way connector. […] However, 1.5 mM of peptide β1^25 (41-65) was used throughout the experiments described below.
(§4) Burn wound model. Four pigs weighing 20-25 kg were anesthetized by intramuscular injection of ketamine (5 mg/kg), strenil® (cazaporonum) (20 mg/kg) and atropine (5 mg/kg). Six uniform burn wounds (110° C., 30 sec) were then made symmetrically on the back of each pig using a modified soldering iron (Ref. 15) with a flat contact area of 20 cm^2. […] After wounding, a thin layer of Intrasite®) gel containing either peptide β1^25 (41-65), buffer or nothing else was applied to the wounds. All wounds were dressed with paraffin gauze. The dressing was changed every two days for the first 10 days and twice a week for the next 30 days. Gel comprising peptide β1^25 (41-65) and control gel were applied and wound measurements were made at each dressing change.
Assessment of wound healing. Wound healing was assessed by evaluating the rates of wound re-epithelization and contraction. The open wound area and the area enclosed by the normal hair bearing skin were measured using the macrophotography technique (Ref. 14). The healing rate was monitored every two days for the first 10 days and twice a week for 30 more days. Wound reepithelialization as a percent of the original wound size was calculated using the following formula:
[formula] where E=rate of re-epithelialization in percent; An=area enclosed by the normal hair bearing skin on a given post-burn day; Ao=area of open wound on the same day as was measured. Wound contraction was calculated using the following formula:
[formula] where C=rate of wound contraction in percent; Al=wound area as measured immediately following the burn or excision injury; An=area enclosed by normal hair bearing skin.
(§5) Measurement of scar. The volumes of scar tissue were estimated by multiplying their thickness by the size of the scar on post-burn day 41 in pigs and post-excision day 10 in rabbits.

ear excision wounds = experiment: Rabbit ear excision wound model; type: in vivo; settings: for scar formation: post-excision day 10
Procedure: as §3
Excision wound model. Four pigs received intramuscular injection of ketamine, strenil® and atropine as described above. Six excision injuries were generated by removing full-thickness sections of skin (3×3 cm) from standardized sites on the back of each animal using a scapel. Three rabbits, were anesthetized by intramuscular injection of ketamine (5 mg/kg). Three excision injuries were produced in each by removing full-thickness sections of skin (0.5×1 cm) from each ear. After wounds, a thin layer of IntraSite® gel containing peptide β1^25 (41-65) was applied to alternating wounds on each animal and IntraSite® gel+buffer was applied to the other half. The excision wounds were then dressed with a paraffin gauze. For pig experiments, the dressing was changed every two days for the first 10 days and twice a week for the next 30 days. For rabbit experiments, the dressing was changed for the first 3 days. Gel containing peptide β1^25 (41-65) or control gel was applied at each dressing change.
as §5

[5] = Observation of deleterious effects in treated animals; type: in vivo, pig, rabbit; settings: topical, any animal
Procedure: as §4
Excision wound model. Four pigs received intramuscular injection of ketamine, strenil® and atropine as described above. Six excision injuries were generated by removing full-thickness sections of skin (3×3 cm) from standardized sites on the back of each animal using a scapel. Three rabbits, were anesthetized by intramuscular injection of ketamine (5 mg/kg). Three excision injuries were produced in each by removing full-thickness sections of skin (0.5×1 cm) from each ear. […]

[6] = 1.5 mM in gel, topical, listed as TGF-β peptantagonist

Sequence: ANFCLGPCPYIWSLDTQYSKVLALY [peptide β1^25 (41-65)]
- inhibition of 125I-TGF-β1 binding to TGF-β receptors (TGF-β receptors): completely inhibited
- inhibition of 125I-TGF-β1-affinity labeling of the type V TGF-β receptor [1]: almost completely abolished
- inhibition of 125I-TGF-β1-affinity labeling of other TGF-β receptor types [2]: 30-40%
- blocking of DNA synthesis inhibition induced by TGF-β1 ([3]; 0.025 ρM and 0.25 ρM TGF-β1, 18 μM peptide): completely blocked
- blocking of TGF-β1-induced growth inhibition, dose dependence ([3]; 0.25 ρM TGF-β1, various concentrations of peptide): concentration-dependent manner
- effect on DNA synthesis in the absence of TGF-β1 ([4]; 0.1 μM to 36 μM peptide): did not have an effect
- reversal of growth inhibition induced by 0.2 μM β1^25 (41-65)-CA ([4]; 10 μM peptide, data not shown): abolished
- wound contraction versus vehicle only (burn wounds; 1.5 mM in gel, topical): less contraction
- re-epithelialization / healing rate versus vehicle (burn wounds; 1.5 mM in gel, topical): rapid re-epithelialization
- re-epithelialization / healing rate versus vehicle (burn wounds; [6]): healed faster
- re-epithelialization complete (burn wounds; 1.5 mM in gel, topical, n=4): 26±2 post-burn day
- wound contraction versus vehicle only (burn wounds; [6]): contracted significantly
- accelerating wound healing and reducing scarring (burn wounds; 0.75 and 1.5 mM peptide in gel, topical): effective
- open wound (burn wounds; post-burn day 23): very little open wound
- wound contraction (burn wounds; post-burn day 33, 1.5 mM in gel, n=4): 50±4%
- open wound (burn wounds; post-burn day 34): very little open wound
- scarring versus vehicle-only control wounds (burn wounds): less scarring
- scarring versus vehicle-only control wounds (burn wounds; listed as TGF-β peptantagonist): less scar formation
- volume of scar tissue (burn wounds; post-burn day 41): 0.07±0.02 cm^3
- scar formation (ear excision wounds): attenuated scar formation
- volume of scar tissue (ear excision wounds; post-excision day 10, n=6, estimated): 0.005±0.01 cm^3
- scar formation (ear excision wounds; listed as TGF-β-peptantagonist): reduced scarring
- deleterious effects [5]: no apparent deleterious effects

Source: US7723473B2, “Peptide antagonists of TGF-beta family members and therapeutic uses thereof” (St. Louis University, priority 1997, dated 2010)
